Source: article PMC4631180 (British Journal of Clinical Pharmacology, 2015)
“Also recorded” adds a separate entry of the source. Counter-ions that a name gives are not always drawn. Like-named read-outs stand apart in the source and are kept apart here. Marks after values point to notes of the source that are not given here.

What was measured:
[1] = assay type: in vivo, human; conditions: for Total AUC: extrapolated to infinity; for half-life: both, human, plasma, oral, t½; for Cmax ratio (Day2) / (Day1), arithmetic mean / Cmax ratio (Day2) / (Day1), geometric mean / Cmax ratio (Day6) / (Day1), arithmetic mean / Cmax ratio (Day6) / (Day1), geometric mean / Total AUC ratio (Day2) / (Day1), arithmetic mean / Total AUC ratio (Day2) / (Day1), geometric mean / Total AUC ratio (Day6) / (Day1), arithmetic mean / Total AUC ratio (Day6) / (Day1), geometric mean / Truncated AUC ratio (Day2) / (Day1), arithmetic mean / Truncated AUC ratio (Day2) / (Day1), geometric mean / Truncated AUC ratio (Day6) / (Day1), arithmetic mean / Truncated AUC ratio (Day6) / (Day1), geometric mean: favipiravir co-administration vs control; for Truncated AUC: 0–12 h
[2] = assay type: in vivo, human
[3] = system: acetaminophen sulfate formation (sulfation); test: Inhibition of acetaminophen sulfate formation in pooled human hepatic S9; assay type: in vitro ADME; conditions: both, pooled human hepatic S9, probe acetaminophen (2 mM)
[4] = system: acetaminophen glucuronide formation (pooled human hepatic S9); test: Inhibition of acetaminophen glucuronide formation in pooled human hepatic S9; assay type: in vitro ADME; conditions: pooled human hepatic S9, acetaminophen 2 mM; favipiravir up to 3000 µM, T-705M1 3–300 µM
[5] = Day 2, + acute favipiravir, mean (± SE), n = 28
[6] = Day 6, + extended favipiravir, mean (± SE), n = 28
[7] = 650 mg, Day 1, acetaminophen alone (control), mean (± SE), n = 28
[8] = Day 1, acetaminophen alone (control), mean (± SE), n = 28

Row | Compound | Total AUC [1, 5] | Total AUC [1, 6] | half-life [1, 7] [h] | half-life [1, 5] [h] | Cmax ratio (Day2) / (Day1), arithmetic mean [1] | Cmax ratio (Day2) / (Day1), geometric mean [1] | Cmax ratio (Day6) / (Day1), arithmetic mean [1] | Cmax ratio (Day6) / (Day1), geometric mean [1] | Total AUC ratio (Day2) / (Day1), arithmetic mean [1] | Total AUC ratio (Day2) / (Day1), geometric mean [1] | Total AUC ratio (Day6) / (Day1), arithmetic mean [1] | Total AUC ratio (Day6) / (Day1), geometric mean [1] | Truncated AUC ratio (Day2) / (Day1), arithmetic mean [1] | Truncated AUC ratio (Day2) / (Day1), geometric mean [1] | Truncated AUC ratio (Day6) / (Day1), arithmetic mean [1] | Truncated AUC ratio (Day6) / (Day1), geometric mean [1] | Inhibition of acetaminophen glucuronide formation [4] | further results
1 | CC(=O)Nc1ccc(O)cc1 [Acetaminophen, reference compound] | 39.3 (± 3.1) µg ml^–1 h | 37.4 (± 2.5) µg ml^–1 h | 2.8 | 3 | 1.07 | 1.03 | 1.17 | 1.08 | 1.20* | 1.17 | 1.19* | 1.14 | 1.19* | 1.17 | 1.19* | 1.14 |  | Effect of favipiravir co-administration on Cmax ([1]; acute (day 2) and extended (day 6) favipiravir vs day 1): not significantly changed; also recorded: no significant effect; Dose excreted in urine as intact acetaminophen ([2]; on average): less than 10 % of the dose
2 | CC(=O)Nc1ccc(OS(=O)(=O)O)cc1 [Acetaminophen sulfate] | 21.2 (± 2.1) µg ml^–1 h | 20.1 (± 2.3) µg ml^–1 h |  |  | 0.52* | 0.51 | 0.52* | 0.47 | 0.84* | 0.8 | 0.81 | 0.72 | 0.71* | 0.7 | 0.65* | 0.6 |  | Cmax ([1]; Day 1, acetaminophen 650 mg oral alone (control), mean (± SE), n = 28): 4.8 (± 0.4) µg ml^–1; tmax ([1]; Day 1, acetaminophen 650 mg oral alone (control), n = 28): 1.00 (± 0.33) h; Truncated AUC [1, 8]: 22.4 (± 1.7) µg ml^–1 h; t½ [1, 8]: 3.4 (± 0.1) h; Truncated AUC [1, 5]: 16.0 (± 1.3) µg ml^–1 h; t½ [1, 5]: 5.5 (± 0.6) h; tmax ([1]; Day 2, acetaminophen 650 mg oral + acute favipiravir, n = 28): 1.51 (± 0.1) h; Truncated AUC [1, 6]: 14.6 (± 1.6) µg ml^–1 h; t½ [1, 6]: 5.3 (± 0.4) h; tmax ([1]; Day 6, acetaminophen 650 mg oral + extended favipiravir, n = 28): 1.27 (± 0.09) h; Projected total urinary excretion ([2]; Day 1, acetaminophen 650 mg alone (control), mean (± SE), n = 28): 22 (± 2) % of dose
3 | NC(=O)c1nc(F)c[nH]c1=O [Favipiravir, reference compound] |  |  |  |  |  |  |  |  |  |  |  |  |  |  |  |  | did not inhibit | IC50 at 15 min [3]: 150 µM
4 | NC(=O)c1nc(F)c(=O)[nH]c1O [T‐705M1] |  |  |  |  |  |  |  |  |  |  |  |  |  |  |  |  | did not inhibit; also recorded: no effect | 
5 | CC(=O)Nc1ccc(O[C@@H]2O[C@H](C(=O)O)[C@@H](O)[C@H](O)[C@H]2O)cc1 [Acetaminophen glucuronide] | 99.3 (± 5.1) µg ml^–1 h | 109.0 (± 7.1) µg ml^–1 h | 3.3 | 3.5 | 1.19* | 1.18 | 1.26* | 1.22 | 1.23* | 1.22 | 1.35* | 1.32 | 1.23* | 1.21 | 1.34* | 1.31 |  | 
